Laboratory results published in US20250361234A1 (NICO THERAPEUTICS, INC., priority 2022, published 2025).
pIC50: −log10 of the molar value.

Biological target: T1, full-length SARM1 (FL-SARM1) (Homo sapiens, UniProt Q6SZW1)
T1 sequence (Q6SZW1 28-724): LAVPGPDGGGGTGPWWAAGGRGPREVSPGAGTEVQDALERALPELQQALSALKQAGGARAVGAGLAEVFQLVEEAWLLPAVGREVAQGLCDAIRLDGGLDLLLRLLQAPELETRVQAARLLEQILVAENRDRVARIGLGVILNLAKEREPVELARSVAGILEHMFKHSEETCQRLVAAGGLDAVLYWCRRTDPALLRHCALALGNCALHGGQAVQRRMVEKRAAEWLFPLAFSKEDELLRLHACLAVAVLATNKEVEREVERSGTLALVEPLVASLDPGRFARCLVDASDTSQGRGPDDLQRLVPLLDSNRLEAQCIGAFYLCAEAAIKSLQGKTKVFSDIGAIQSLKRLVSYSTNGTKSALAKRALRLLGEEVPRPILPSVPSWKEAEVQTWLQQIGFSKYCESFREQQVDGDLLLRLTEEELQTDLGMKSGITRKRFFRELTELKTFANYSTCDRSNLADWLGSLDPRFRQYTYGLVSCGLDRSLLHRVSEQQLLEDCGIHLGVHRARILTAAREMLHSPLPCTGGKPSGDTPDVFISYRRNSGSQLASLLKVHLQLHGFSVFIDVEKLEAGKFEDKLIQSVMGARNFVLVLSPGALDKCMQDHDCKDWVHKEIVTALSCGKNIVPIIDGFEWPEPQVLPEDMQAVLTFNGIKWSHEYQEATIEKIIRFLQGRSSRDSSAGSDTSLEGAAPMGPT
Assay: FL-SARM1 cellular lysate assay (NAD/NADH-Glo readout of remaining NAD+)
Conditions: SARM1 cellular lysate from transfected HEK293T cells, NAD+ and NMN, 11 point curve; for IC50: Activity (μM); for pIC50: Activity

Row | Compound | IC50 [µM] | pIC50
1 | COc1ncccc1-c1cc(NC(=O)N2C3CCCC2C3)ccc1C [Example 68, N-(3-(2-methoxypyridin-3-yl)-4-methylphenyl)-6-azabicyclo[3.1.1]heptane-6-carboxamide] | 2.5 | 5.00 to 6.00
2 | Cc1ccc(NC(=O)N2C3CCCC2C3)cc1-c1cccnc1C [Example 69, N-[4-methyl-3-(2-methylpyridin-3-yl)phenyl]-6-azabicyclo[3.1.1]heptane-6-carboxamide] | 1.6 | 5.00 to 6.00
3 | Cc1ccc(-c2cc(NC(=O)N3C4CCCC3C4)ccc2C)cn1 [Example 70, N-[4-methyl-3-(6-methylpyridin-3-yl)phenyl]-6-azabicyclo[3.1.1]heptane-6-carboxamide] | 0.3 | 6.00 to 10.00
4 | COc1cncc(-c2cc(NC(=O)N3C4CCCC3C4)ccc2C)c1 [Example 71, N-(3-(5-methoxypyridin-3-yl)-4-methylphenyl)-6-azabicyclo[3.1.1]heptane-6-carboxamide] | 0.08 | 6.00 to 10.00
5 | Cc1ccc(NC(=O)N2C3CCCC2C3)cc1-c1cncc(C#N)c1 [Example 72, N-(3-(5-cyanopyridin-3-yl)-4-methylphenyl)-6-azabicyclo[3.1.1]heptane-6-carboxamide] | 0.1 | 6.00 to 10.00
6 | O=C(Nc1cccc(-c2cncc(F)c2)c1)N1C2CCCC1C2 [Example 73, N-[3-(5-fluoropyridin-3-yl)phenyl]-6-azabicyclo[3.1.1]heptane-6-carboxamide] | 1.2 | 5.00 to 6.00
7 | O=C(Nc1ccc(F)c(-c2cncc(F)c2)c1)N1C2CCCC1C2 [Example 74, N-(4-fluoro-3-(5-fluoropyridin-3-yl)phenyl)-6-azabicyclo[3.1.1]heptane-6-carboxamide] | 2.8 | 5.00 to 6.00
8 | O=C(Nc1ccc(C(F)(F)F)c(-c2cncc(F)c2)c1)N1C2CCCC1C2 [Example 75, N-(3-(5-fluoropyridin-3-yl)-4-(trifluoromethyl)phenyl)-6-azabicyclo[3.1.1]heptane-6-carboxamide] | 1 | 5.00 to 6.00
9 | CCc1ccc(NC(=O)N2[C@@H]3C[C@H](C)C[C@H]2C3)cc1-c1cncc(F)c1 [Example 76, trans-N-(4-ethyl-3-(5-fluoropyridin-3-yl)phenyl)-3-methyl-6-azabicyclo[3.1.1]heptane-6-carboxamide] | 0.03 | 6.00 to 10.00
10 | Cc1ccc(NC(=O)N2CCOc3cccc(C#N)c3C2)cc1-c1cncc(F)c1 [Example 81] | 5.6 | 5.00 to 6.00
11 | CCc1ccc(NC(=O)N2[C@@H]3C[C@@H](C)C[C@H]2C3)cc1-c1cncc(F)c1 [Example 82, cis-N-(4-ethyl-3-(5-fluoropyridin-3-yl)phenyl)-3-methyl-6-azabicyclo[3.1.1]heptane-6-carboxamide] | 0.02 | 6.00 to 10.00
12 | Cc1ccc(NC(=O)N2[C@@H]3C[C@H](C)C[C@H]2C3)cc1-c1cncc(F)c1 [Example 84, cis-N-(3-(5-fluoropyridin-3-yl)-4-methylphenyl)-3-methyl-6-azabicyclo[3.1.1]heptane-6-carboxamide] | 0.007 | 6.00 to 10.00
13 | Cc1ncc(-c2cc(NC(=O)N3C4CCCC3C4)ccc2C)cn1 [Example 85, N-(4-methyl-3-(2-methylpyrimidin-5-yl)phenyl)-6-azabicyclo[3.1.1]heptane-6-carboxamide] | 1.8 | 5.00 to 6.00
14 | Cc1ccc(NC(=O)N2C3CCCC2C3)cc1-c1cccnc1 [Example 86, N-(4-methyl-3-(pyridine-3-yl)phenyl)-6-azabicyclo[3.1.1]heptane-6-carboxamide] | 0.2 | 6.00 to 10.00
15 | Cc1ccc(NC(=O)N2C3CCCC2C3)cc1-c1cncc(F)c1 [Example 87, N-(3-(5-fluoropyridin-3-yl)-4-methylphenyl)-6-azabicyclo[3.1.1]heptane-6-carboxamide] | 0.1 | 6.00 to 10.00
